Laboratory results as given in US20240148895A1, “ANTIBODY-DRUG CONJUGATE” (Eisai R&D Management Co., Ltd., priority 2022, published 2024).
Where two headings read alike, the source gives them in different places.

How the values were obtained:
[1] = test system: AsPC-1/Cas9 cell line; assay: AsPC-1/Cas9 growth inhibition assay; assay type: cell-based, human; conditions: AsPC-1/Cas9 cells, 5 days culture, CellTiter Glo 2.0, read-out: Absolute IC50—Day 5 (nM) AsPC-1 Cas9
Protocol: The human pancreatic cancer cell line AsPC-1 (ATCC Number CRL1682) was infected with Edit-R Lentiviral hCMV-Blast-Cas9 Nuclease Particle (Dharmacon, VCAS10124) in the presence of 8 μg/ml of Hexadimethrine bromide (Sigma, H9268), and after 24 hours it was exposed to 10 μg/ml of Blastcidin S (Thermo, A11139) to remove the uninfected cells, thereby establishing an AsPC-1/Cas9 cell line. The cells were maintenance cultured in a 5% CO2 incubator (37° C.) using RPMI-1640 (FujiFilm-Wako Pure Chemical Industries) containing 10% fetal bovine serum (FBS: SIGMA 173012) and penicillin/streptomycin (FujiFilm-Wako Pure Chemical Industries) (hereunder referred to simply as “culture medium”). After adding 45 μL of AsPC-1/Cas9 cell suspension prepared to 2.0×10^4 cells/mL using culture medium into each well of a 384-well plate (Greiner 781091), the cells were cultured overnight in a 5% CO2 incubator (37° C.). On the following day, 5 μL of the test substance diluted with culture medium was added to each well, and culturing was continued for 5 days in a 5% CO2 incubator (37° C.). Next, 25 μL of CellTiter Glo™ 2.0 (Promega) was added to each well, and the plate contents were mixed for 5 minutes using a plate mixer. The plate was stationed for 10 minutes at room temperature while shielded from light, and then the luminous intensity was measured with an ENVISION™ (Perkin-Elmer). The luminescence value of the wells with addition of test substance was determined as a relative value, with 100% as the luminescence value of the wells with cells but without addition of the test substance, and 0% as the luminescence value of the wells without cells. A plot of test substance concentration against luminescence value % approximated a 4-parameter logistic curve, and the test substance concentration necessary for 50% inhibition of cell growth (Absolute IC50) was calculated, and is shown in Table 4.

[2] = biological target: HiBiT tagged BRD4-BD1 protein in HEK293/LgBiT/hPGK/HiBiT-BRD4-BD1 cells (Homo sapiens, UniProt O60885); assay: BET BD1 domain degradation assay; assay type: cell-based; design: HiBit-linker-BRD4 BD1(1-209); host or cells: HEK293 (ATCC CRL-1573) stably transduced with LgBiT and HiBiT-BRD4-BD1; conditions: concentration for 50% reduction in HiBiT-BRD4-BD1 protein level, 3 hours, read-out: Absolute DC50—3 h (nM) HEK293_HiBiT-BRD4-BD1
Text: HEK293/LgBiT/hPGK/HiBiT-BRD4-BD1 cells were established by introducing LgBiT and HiBiT-BRD4-BD1 into the human fetus renal cell line HEK293 (ATCC Number CRL-1573). LgBiT was introduced using lentivirus vector LV[Exp]-Bsd-EFS>{LgBiT}, and HiBiT-BRD4-BD1 was introduced with lentivirus vector LV[Exp]-Puro-hPGK>{HiBit-linker-BRD4 BD1(1-209)}. The vector plasmids LV[Exp]-Bsd-EFS>{LgBiT} and LV[Exp]-Puro-hPGK>{HiBit-linker-BRD4_BD1(1-209)} were constructed by VectorBuilder Co. The lentivirus was produced using a Mission Lentivirus Packaging Mix (Sigma) according to the manufacturer's protocol. Viral infection and drug selection of infected cells were carried out by the following published method (Akagi T. et. al, PNAS 2003; 100:13567-72). The cells were maintenance cultured in a 5% CO2 incubator (37° C.), using culture medium. A 45 μL portion of cell suspension of HEK293/LgBiT/hPGK/HiBiT-BRD4-BD1 cells prepared to 6.7×10^4 cells/mL using culture medium was added to each well of a collagen I-coated 384-well plate (Falcon 356667), and the cells were cultured overnight in a 5% CO2 incubator (37° C.). On the following day, 5 μL of test substance diluted with RPMI-1640 (FujiFilm-Wako Pure Chemical Industries) containing 10% fetal bovine serum (FBS: SIGMA 173012) and penicillin/streptomycin (FujiFilm-Wako Pure Chemical Industries) was added to each well, and culturing was continued for 3 hours in a 5% CO2 incubator (37° C.). The luminous intensity was measured using a Nono-Glo HiBiT Lytic Detection System (Promega), and the intracellular HiBiT tagged BRD4-BD1 protein level was calculated. After culturing, 25 μL of measuring reagent was added to each well and the plate contents were mixed for 5 minutes using a plate mixer. The plate was stationed for 10 minutes at room temperature while shielded from light, and then the luminous intensity was measured with an ENVISION′ (Perkin-Elmer). The luminescence value of the wells with addition of test substance was determined as a relative value, with 100% as the luminescence value of the wells with cells but without addition of the test substance, and 0% as the luminescence value of the wells without cells. A plot of test substance concentration against luminescence value % approximated a 4-parameter logistic curve, and the test substance concentration necessary for 50% reduction in protein level (Absolute DC50) was calculated and is shown in Table 4.

IC50 ([1]; Homo sapiens, ASPC1, 120 h)	DC50 [2]	IC50 [1]	SMILES
0.073 nM	0.15 nM		COc1ccc(C(=O)NC2(C)CCN(C3CCN(c4nc([C@@](CO)(OC5CC5)c5ccccc5)c5cc(-c6cn(C)c(=O)c7[nH]ccc67)ccc5n4)CC3)CC2)cc1N1CCC(=O)NC1=O (stereo in doubt) [Example 104, N-(1′-(4-(1-Cyclopropoxy-2-hydroxy-1-phenylethyl)-6-(6-methyl-7-oxo-6,7-dihydro-1H-pyrrolo[2,3-c]pyridin-4-yl)quinazolin-2-yl)-4-methyl-[1,4′-bipiperidin]-4-yl)-3-(2,4-dioxotetrahydropyrimidine-1(2H)-yl)-4-methoxybenzamide]
	0.045 nM	0.18 nM	COc1ccc(C#CCNC2(C)CCN(C3CCN(c4nc(C(CO)(OC5CC5)c5ccccc5)c5cc(-c6cn(C)c(=O)c7[nH]ccc67)ccc5n4)CC3)CC2)cc1N1CCC(=O)NC1=O (stereo in doubt) [Example 145, (R)-1-(5-(3-((1′-(4-(1-Cyclopropoxy-2-hydroxy-1-phenylethyl)-6-(6-methyl-7-oxo-6,7-dihydro-1H-pyrrolo[2,3-c]pyridin-4-yl)quinazolin-2-yl)-4-methyl-[1,4′-bipiperidin]-4-yl)amino)prop-1-yn-1-yl)-2-methoxyphenyl)dihydropyrimidine-2,4(1H,3H)-dione]
	0.083 nM	0.087 nM	COc1ccc(C#CCNC2(C)CCN(C3CCN(c4nc([C@@](CO)(OC5CC5)c5ccccc5)c5cc(-c6cn(C)c(=O)c7[nH]ccc67)ccc5n4)CC3)CC2)cc1N1CCC(=O)NC1=O [Example 101, (S)-1-(5-(3-((1′-(4-(1-Cyclopropoxy-2-hydroxy-1-phenylethyl)-6-(6-methyl-7-oxo-6,7-dihydro-1H-pyrrolo[2,3-c]pyridin-4-yl)quinazolin-2-yl)-4-methyl-[1,4′-bipiperidin]-4-yl)amino)prop-1-yn-1-yl)-2-methoxyphenyl)dihydropyrimidine-2,4(1H,3H)-dione]
0.073 nM	0.045 nM		Cn1cc(-c2ccc3nc(N4CC(OC5CCN(C(=O)c6cccc(N7CCC(=O)NC7=O)c6)CC5)C4)nc([C@@](CO)(OC4CC4)c4ccccc4)c3c2)c2cc[nH]c2c1=O [Example 103, (S)-1-(3-(4-((1-(4-(1-Cyclopropoxy-2-hydroxy-1-phenylethyl)-6-(6-methyl-7-oxo-6,7-dihydro-1H-pyrrolo[2,3-c]pyridin-4-yl)quinazolin-2-yl)azetidin-3-yl)oxy)piperidine-1-carbonyl)phenyl)dihydropyrimidine-2,4(1H,3H)-dione]
0.23 nM	0.21 nM		COc1ccc(C(=O)NC2(C)CCN(CC3CCN(c4nc(C(CO)(OC5CC5)c5ccccc5)c5cc(-c6cn(C)c(=O)c7occc67)ccc5n4)CC3)CC2)cc1N1CCC(=O)NC1=O (centres unmarked) [Example 108, N-(1-((1-(4-(1-Cyclopropoxy-2-hydroxy-1-phenylethyl)-6-(6-methyl-7-oxo-6,7-dihydrofuro[2,3-c]pyridin-4-yl)quinazolin-2-yl)piperidin-4-yl)methyl)-4-methylpiperidin-4-yl)-3-(2,4-dioxotetrahydropyrimidine-1(2H)-yl)-4-methoxybenzamide]
0.11 nM	0.33 nM		COc1ccc(C(=O)N2C[C@H](C)N(C3CCN(c4nc([C@@](CN)(OC5CC5)c5ccccc5)c5cc(-c6cn(C)c(=O)c7[nH]ccc67)ccc5n4)CC3)C[C@H]2C)cc1N1CCC(=O)NC1=O [Example 114, 1-(5-((2R,5 S)-4-(1-(4-((R)-2-Amino-1-cyclopropoxy-1-phenylethyl)-6-(6-methyl-7-oxo-6,7-dihydro-1H-pyrrolo[2,3-c]pyridin-4-yl)quinazolin-2-yl)piperidin-4-yl)-2,5-dimethylpiperazine-1-carbonyl)-2-methoxyphenyl)dihydropyrimidine-2,4(1H,3H)-dione]
0.11 nM	0.15 nM		COc1ccc(C(=O)N2C[C@H](C)N(CC3CCN(c4nc([C@@](CN)(OC5CC5)c5ccccc5)c5cc(-c6cn(C)c(=O)c7[nH]ccc67)ccc5n4)CC3)C[C@H]2C)cc1N1CCC(=O)NC1=O [Example 115, 1-(5-((2R,5 S)-4-((1-(4-((R)-2-Amino-1-cyclopropoxy-1-phenylethyl)-6-(6-methyl-7-oxo-6,7-dihydro-1H-pyrrolo[2,3-c]pyridin-4-yl)quinazolin-2-yl)piperidin-4-yl)methyl)-2,5-dimethylpiperazine-1-carbonyl)-2-methoxyphenyl)dihydropyrimidine-2,4-(1H,3H)-dione]
0.23 nM	1.6 nM		CNCCN(C)C(=O)OCC(OC1CC1)(c1ccccc1)c1nc(N2CCC(CN3C[C@@H](C)N(C(=O)c4ccc(OC)c(N5CCC(=O)NC5=O)c4)C[C@@H]3C)CC2)nc2ccc(-c3cn(C)c(=O)c4[nH]ccc34)cc12 (stereo partly drawn) [Example 119, 2-Cyclopropoxy-2-(2-(4-(((2S,5R)-4-(3-(2,4-dioxotetrahydropyrimidine-1(2H)-yl)-4-methoxybenzoyl)-2,5-dimethylpiperazin-1-yl)methyl)piperidin-1-yl)-6-(6-methyl-7-oxo-6,7-dihydro-1H-pyrrolo[2,3-c]pyridin-4-yl)quinazolin-4-yl)-2-phenylethyl methyl(2-(methylamino)ethyl)carbamate]
0.58 nM	2.9 nM		CNCCN(C)C(=O)OCC(OC1CC1)(c1ccccc1)c1nc(N2CCC(C#Cc3ccc(OC)c(N4CCC(=O)NC4=O)c3)CC2)nc2ccc(-c3cn(C)c(=O)c4[nH]ccc34)cc12 (centres unmarked) [Example 120, 2-Cyclopropoxy-2-(2-(4-((3-(2,4-dioxotetrahydropyrimidine-1(2H)-yl)-methoxyphenyl)ethynyl)piperidin-1-yl)-6-(6-methyl-7-oxo-6,7-dihydro-1H-pyrrolo[2,3-c]pyridin-4-yl)quinazolin-4-yl)-2-phenylethyl methyl(2-(methylamino)ethyl)carbamate]
4.9 nM	0.15 nM		Cc1cc(-c2ccc3nc(N4CCC(CN5CCN(C(=O)COc6cccc7c6C(=O)N(C6CCC(=O)NC6=O)C7=O)CC5)CC4)nc(C(CO)(OC4CC4)c4ccccc4)c3c2)cn(C)c1=O (centres unmarked) [Example 122, 4-(2-(4-((1-(4-(1-Cyclopropoxy-2-hydroxy-1-phenylethyl)-6-(1,5-dimethyl-6-oxo-1,6-dihydropyridin-3-yl)quinazolin-2-yl)piperidin-4-yl)methyl)piperazin-1-yl)-2-oxoethoxy)-2-(2,6-dioxopiperidin-3-yl)isoindoline-1,3-dione]
